According to EP3623369A1, “NOVEL MORPHOLINYL AMINE COMPOUNDS FOR THE TREATMENT OF AUTOIMMUNE DISEASE” (F. Hoffmann-La Roche AG, priority 2018, dated 2020):

Target: T1, human TLR8 (Homo sapiens, UniProt Q9NR97)
T1 sequence (Q9NR97 27-1041): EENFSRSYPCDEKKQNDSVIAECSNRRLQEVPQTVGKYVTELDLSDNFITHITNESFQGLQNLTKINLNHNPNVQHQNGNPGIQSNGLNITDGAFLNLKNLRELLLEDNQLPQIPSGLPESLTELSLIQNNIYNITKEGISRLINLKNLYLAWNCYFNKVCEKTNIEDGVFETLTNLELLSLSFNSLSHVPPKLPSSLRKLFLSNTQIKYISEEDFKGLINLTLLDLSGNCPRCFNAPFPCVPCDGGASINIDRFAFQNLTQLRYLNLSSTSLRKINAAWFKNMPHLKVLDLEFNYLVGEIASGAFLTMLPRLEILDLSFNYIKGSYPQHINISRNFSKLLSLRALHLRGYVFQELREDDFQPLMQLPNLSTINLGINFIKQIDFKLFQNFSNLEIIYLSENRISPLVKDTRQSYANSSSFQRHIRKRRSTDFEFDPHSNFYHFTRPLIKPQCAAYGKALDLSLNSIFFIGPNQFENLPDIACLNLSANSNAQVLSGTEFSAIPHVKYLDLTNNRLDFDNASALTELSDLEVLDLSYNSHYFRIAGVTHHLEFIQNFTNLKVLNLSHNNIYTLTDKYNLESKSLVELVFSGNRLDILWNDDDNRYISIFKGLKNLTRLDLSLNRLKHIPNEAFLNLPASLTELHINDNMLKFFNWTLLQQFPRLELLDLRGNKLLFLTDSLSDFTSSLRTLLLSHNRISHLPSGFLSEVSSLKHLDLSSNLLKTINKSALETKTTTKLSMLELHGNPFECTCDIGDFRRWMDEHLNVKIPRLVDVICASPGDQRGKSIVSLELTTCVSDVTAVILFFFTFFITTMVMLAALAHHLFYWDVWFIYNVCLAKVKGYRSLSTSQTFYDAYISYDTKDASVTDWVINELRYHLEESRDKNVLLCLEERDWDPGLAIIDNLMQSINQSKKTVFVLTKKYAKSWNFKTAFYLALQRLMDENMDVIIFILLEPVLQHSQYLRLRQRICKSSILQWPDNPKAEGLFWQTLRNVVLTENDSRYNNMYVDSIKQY
Assay: HEK293-Blue-hTLR-8 cells assay (SEAP reporter, R848 stimulation)
Assay type: cell-based
Conditions: HEK293-Blue-hTLR8 cells, R848, 20 hrs; 0.003 is the lowest tested concentration; read-out: HEK/hTLR8 IC50
Procedure: The following tests were carried out in order to determine the activity of the compounds of formula (I) or (Ia) in HEK293-Blue-hTLR-7/8/9 cells assay.
HEK293-Blue-hTLR-8 cells assay:
A stable HEK293-Blue-hTLR-8 cell line was purchased from InvivoGen (Cat.#: hkb-htlr8, San Diego, California, USA). These cells were originally designed for studying the stimulation of human TLR8 by monitoring the activation of NF-κB. A SEAP (secreted embryonic alkaline phosphatase) reporter gene was placed under the control of the IFN-β minimal promoter fused to five NF-κB and AP-1-binding sites. The SEAP was induced by activating NF-κB and AP-1 via stimulating HEK-Blue hTLR8 cells with TLR8 ligands. Therefore the reporter expression was declined by TLR8 antagonist under the stimulation of a ligand, such as R848, for incubation of 20 hrs. The cell culture supernatant SEAP reporter activity was determined using QUANTI-Blue™ kit (Cat.#: rep-qb1, Invivogen, San Diego, Ca, USA) at a wavelength of 640 nm, a detection medium that turns purple or blue in the presence of alkaline phosphatase.
HEK293-Blue-hTLR8 cells were incubated at a density of 250,000∼450,000 cells/mL in a volume of 170 µL in a 96-well plate in Dulbecco's Modified Eagle's medium (DMEM) containing 4.5 g/L glucose, 50 U/mL penicillin, […], […], 2 mM L-glutamine, 10% (v/v) heat-inactivated fetal bovine serum with addition of 20 µL test compound in a serial dilution in the presence of final DMSO at 1% and 10 µL of 60uM R848 in above DMEM, perform incubation under 37 °C in a CO2 incubator for 20 hrs. Then 20 µL of the supernatant from each well was incubated with 180 µL Quanti-blue substrate solution at 37°C for 2 hrs and the absorbance was read at 620∼655 nm using a spectrophotometer. The signalling pathway that TLR8 activation leads to downstream NF-κB activation has been widely accepted, and therefore similar reporter assay was modified for evaluating TLR8 antagonist.

| Structure (SMILES) | IC50 [nM] |
| --- | --- |
| C[C@@H]1CN(c2ccc(C#N)n3nccc23)C[C@H](CN2CCc3cc(N4CCNCC4)ccc3C2)O1 [Example 10, 4-[(2R,6S)-2-methyl-6-[(6-piperazin-1-yl-3,4-dihydro-1H-isoquinolin-2-yl)methyl]morpholin-4-yl]pyrazolo[1,5-a]pyridine-7-carbonitrile] | 52 |
| C[C@@H]1CN(c2ccc(C#N)c3nccnc23)C[C@H](CN2Cc3ccc(N4CCN[C@@H](C)C4)cc3C2)O1 [Example 66, 8-[(2R,6S)-2-methyl-6-[[5-[(3S)-3-methylpiperazin-1-yl]isoindolin-2-yl]methyl]morpholin-4-yl]quinoxaline-5-carbonitrile] | < 3 |
| C[C@@H]1CN(c2ccc(C#N)c3nccnc23)C[C@H](CN2CCc3cc(N4CCNCC4)ccc3C2)O1 [Example 13, 8-[(2R,6S)-2-methyl-6-[(6-piperazin-1-yl-3,4-dihydro-1H-isoquinolin-2-yl)methyl]morpholin-4-yl]quinoxaline-5-carbonitrile] | < 3 |
| C[C@@H]1CN(c2ccc(C#N)c3ncccc23)C[C@H](CN2Cc3ccc(N4C5CCC4CNC5)cc3C2)O1 [Example 43, 5-[(2S,6R)-2-[[5-(3,8-diazabicyclo[3.2.1]octan-8-yl)isoindolin-2-yl]methyl]-6-methyl-morpholin-4-yl]quinoline-8-carbonitrile] | 12 |
| C[C@@H]1CN(c2ccc(C#N)c3nccnc23)C[C@H](CN2Cc3ccc(N4CC5COCC(C4)N5)cc3C2)O1 [Example 49, 8-[(2R,6S)-2-methyl-6-[[5-(3-oxa-7,9-diazabicyclo[3.3.1]nonan-7-yl)isoindolin-2-yl]methyl]morpholin-4-yl]quinoxaline-5-carbonitrile] | 14 |
| C[C@@H]1CN(c2ccc(C#N)n3ncc(F)c23)C[C@H](CN2CCc3cc(N4CCNCC4)ccc3C2)O1 [Example 14, 3-fluoro-4-[(2R,6S)-2-methyl-6-[(6-piperazin-1-yl-3,4-dihydro-1H-isoquinolin-2-yl)methyl]morpholin-4-yl]pyrazolo[1,5-a]pyridine-7-carbonitrile] | 29 |
| CC1c2ccc(N3CCNCC3)cc2CN1C[C@H]1CN(c2ccc(C#N)c3ncccc23)C[C@@H](C)O1 (stereo partly drawn) [Example 48, 5-[(2R,6S)-2-methyl-6-[(1-methyl-5-piperazin-1-yl-isoindolin-2-yl)methyl]morpholin-4-yl]quinoline-8-carbonitrile] | 18 |
| C[C@@H]1CN(c2ccc(C#N)c3ncccc23)C[C@H](CN2Cc3ccc(N4CCNCC4CO)cc3C2)O1 (stereo partly drawn) [Example 73, 5-[(2S,6R)-2-[[5-[2-(hydroxymethyl)piperazin-1-yl]isoindolin-2-yl]methyl]-6-methyl-morpholin-4-yl]quinoline-8-carbonitrile] | 10 |
| C[C@@H]1CN(c2ccc(C#N)c3ncccc23)C[C@H](CN2Cc3ccccc3C2)O1 [Example R3, 5-[(2S,6R)-2-(isoindolin-2-ylmethyl)-6-methyl-morpholin-4-yl]quinoline-8-carbonitrile, reference compound] | 146 |
| C[C@@H]1CN(c2ccc(C#N)c3ncccc23)C[C@H](CN2Cc3ccc(N4CC5COCC(C4)N5)cc3C2)O1 [Example 72, 5-[(2R,6S)-2-methyl-6-[[5-(3-oxa-7,9-diazabicyclo[3.3.1]nonan-7-yl)isoindolin-2-yl]methyl]morpholin-4-yl]quinoline-8-carbonitrile] | 9 |
| CCOC(=O)C1CNCCN1c1ccc2c(c1)CN(C[C@H]1CN(c3ccc(C#N)c4ncccc34)C[C@@H](C)O1)C2 (stereo partly drawn) [Example 50, Ethyl 1-[2-[[(2S,6R)-4-(8-cyano-5-quinolyl)-6-methyl-morpholin-2-yl]methyl]isoindolin-5-yl] piperazine-2-carboxylate] | 33 |
| C[C@@H]1CN(c2ccc(C#N)c3ncsc23)C[C@H](CN2Cc3ccc(N4CCNCC4)cc3C2)O1 [Example 23, 7-[(2R,6S)-2-methyl-6-[(5-piperazin-1-ylisoindolin-2-yl)methyl]morpholin-4-yl]-1,3-benzothiazole-4-carbonitrile] | < 3 |
| C[C@@H]1CN(c2ccc3c(c2)CN(C[C@H]2CN(c4ccc(C#N)c5nccnc45)C[C@@H](C)O2)C3)CCN1 [Example 65, 8-[(2R,6S)-2-methyl-6-[[5-[(3R)-3-methylpiperazin-1-yl]isoindolin-2-yl]methyl]morpholin-4-yl] quinoxaline-5-carbonitrile] | < 3 |
| C[C@@H]1CN(c2ccc(C#N)c3nccnc23)C[C@H](CN2Cc3cc(N4CCNCC4)cnc3C2)O1 [Example 30, 8-[(2R,6S)-2-methyl-6-[(3-piperazin-1-yl-5,7-dihydropyrrolo[3,4-b]pyridin-6-yl)methyl]morpholin-4-yl]quinoxaline-5-carbonitrile] | 3 |
| C[C@@H]1CN(c2ccc(C#N)n3nccc23)C[C@H](CN2CCc3cc(N4CCN(C)CC4)ccc3C2)O1 [Example 15, 4-[(2R,6S)-2-methyl-6-[[6-(4-methylpiperazin-1-yl)-3,4-dihydro-1H-isoquinolin-2-yl]methyl]morpholin-4-yl]pyrazolo[1,5-a]pyridine-7-carbonitrile] | 21 |
| C[C@@H]1CN(c2ccc(C#N)n3nccc23)C[C@H](CN2Cc3ccncc3C2)O1 [Example R2, 4-[(2S,6R)-2-(1,3-dihydropyrrolo[3,4-c]pyridin-2-ylmethy1)-6-methyl-morpholin-4-yl]pyrazolo[1,5-a]pyridine-7-carbonitrile, reference compound] | 784 |
| C[C@@H]1CN(c2ccc(C#N)c3ncccc23)C[C@H](CN2Cc3ccc(N4CCNCC4)cc3C2)O1 [Example 21, 5-[(2R,6S)-2-methyl-6-[(5-piperazin-1-ylisoindolin-2-yl)methyl]morpholin-4-yl]quinoline-8-carbonitrile] | 5 |
| C[C@@H]1CN(c2ccc(C#N)n3nccc23)C[C@H](CN2CCc3cnccc3C2)O1 [Example R1, 4-[(2S,6R)-2-(3,4-dihydro-1H-2,6-naphthyridin-2-ylmethyl)-6-methyl-morpholin-4-yl]pyrazolo[1,5-a]pyridine-7-carbonitrile, reference compound] | 118 |
| C[C@@H]1CN(c2ccc(C#N)c3nccnc23)C[C@H](CN2Cc3ccc(N4C5CCC4CNC5)cc3C2)O1 [Example 41, 8-[(2S,6R)-2-[[5-(3,8-diazabicyclo[3.2.1]octan-8-yl)isoindolin-2-yl]methyl]-6-methyl-morpholin-4-yl]quinoxaline-5-carbonitrile] | 9 |
| C[C@@H]1CN(c2ccc(C#N)n3nccc23)C[C@H](CN2Cc3ccc(N4CCNCC4)cc3C2)O1 [Example 4, 4-[(2R,6S)-2-methyl-6-[(5-piperazin-1-ylisoindolin-2-yl)methyl]morpholin-4-yl]pyrazolo[1,5-a]pyridine-7-carbonitrile] | 57 |
| C[C@@H]1CN(c2ccc(C#N)n3nccc23)C[C@H](CN2Cc3ccc(N4CCN(C)CC4)cc3C2)O1 [Example 17, 4-[(2R,6S)-2-methyl-6-[[5-(4-methylpiperazin-1-yl)isoindolin-2-yl]methyl]morpholin-4-yl]pyrazolo[1,5-a]pyridine-7-carbonitrile] | 52 |
